One test relates to Colletotrichum coccodes. The experiment in a line: Spore production and viability on wound-inoculated tomato fruit. The class given is in vivo. To be noted: for Spore germ.: 50 ppb O3, recovered spores on agar, 72 h incubation; for Spore prod.: 50 ppb O3, tomato fruit, 13° C., 95% RH, after 9-12 d. The procedure:
(§1) Fruit were wound-inoculated with a suspension containing c. 25×10^3 spores of Botrytis, Alternaria or Colletotrichum, then incubated in clean air or in an atmosphere containing a trace level of ozone (50 ppb) at 13° C., 95% RH. After 9-12 d, spores were washed from inoculated fruit, counts made on a haemocytometer and recovered spore aliquots inoculated onto agar. In vitro spore germination was monitored following 72 h incubation in ‘clean air’ or ‘clean air’ plus a trace level of ozone.

The subject of test [1] is Alternaria alternata. The description is as above. In kind it is in vivo. Particulars: for Spore prod.: 50 ppb O3, tomato fruit, 13° C., 95% RH, after 9-12 d. How it is done: as §1
Test [2] relates to Botrytis cinerea. The test is described as above. In kind it is in vivo. To be noted: for Spore germ.: 50 ppb O3, recovered spores on agar, 72 h incubation; for Spore prod.: 50 ppb O3, tomato fruit, 13° C., 95% RH, after 9-12 d. How it is done:
as §1

The test system of test [3] is Botrytis cinerea. Nature of the test: Grey mould lesion development on wound-inoculated tomato fruit in ozone-enriched air. In kind it is in vivo. Particulars: 50 ppb ozone, even for 2-8 h, 13° C., 95% RH. The text has this: Fruit were wound-inoculated with a mycelial plug containing the pathogen^2 at day 0, transferred to charcoal-filtered air (CFA) or an ozone enriched CFA environment and then removed at intervals to 'clean air'. ^1 Monitored using duplicate photometric analysers calibrated to US-EPA standards ^2 plugs (2.5 mm diameter) were removed from the advancing margins of 3-day-old B. cinerea cultures (4-5-day-old in the case of A. alternaria) and inserted into a superficial wound made in the surface of the fruit (two wound-inoculations per fruit) FIG. 1. Experimental design: Fruit maintained in 'clean air' (CFA, →) or ozone (50 ppb or 200 ppb (→) and then inoculated (↓) with an agar plug containing the pathogen. Exposure to ozone performed in the dark at 13° C. and 95%. FIG. 2. Impacts of ozone-enrichment on the development of grey mould (Botrytis cinerea) on tomato (Lycopersicon esculentum […]) fruit wound-inoculated with a mycelial plug (Lycopersicon esculentum […]). Fruit were maintained in controlled environment chambers at 13° C. and 95% RH ventilated with charcoal-filtered 'clean' air (CFA, □) or CFA plus a trace level of ozone (50 ppb, ●). For experimental design see FIG. 1. Values represent mean (±SE) for 3-4 replicate fruit. Experiments repeated several times.

For test [4], the system named is Botrytis cinerea. The experiment in a line: Spore production on wound-inoculated easi-peel citrus, grapes and plums. Particulars: 100 ppb ozone, 13° C., 95% RH, grapes, plums. The class given is in vivo. How it is done: Fruit were wound-inoculated with spore suspensions of Botrytis cinerea, then incubated in either clean air or an atmosphere containing a trace level of ozone (100 ppb) at 13° C. and 95% RH.
FIG. 4. Impact of a trace level of ozone enrichment (solid bars) on the development of Botrytis cinerea (based on spore counts) on easi-peel citrus, grapes & plums Fruit were wound-inoculated with spore suspensions containing 10^3 (‘low’ inoculum concentration), 10^5 (‘medium’ inoculum concentration) or 10^7 (‘high’ inoculum concentration) Botrytis cinerea, then incubated in clean air or an atmosphere containing a trace level of ozone (100 ppb) at 13° C. and 95% RH, After 8-12 d, spores were washed from inoculated fruit, counts made on a haemocytometer and aliquots incubated on agar. Control fruit were maintained in ‘clean air’ (cross-hatch bars).
Plates 2a & 2b. Impact of a trace level of ozone enrichment on the development of Botrytis cinerea on easi-peel citrus and plums. Fruit were wound-inoculated with/in spore suspensions containing 10^3 (‘low’ inoculum concentration), 10^5 (‘medium’ inoculum concentration) or 10^7 (‘high’ inoculum concentration) Botrytis cinerea, then incubated in clean air or an atmosphere containing a trace level of ozone (100 ppb) at 13° C. and 95% RR Control fruit were maintained in ‘clean air’.

Test [5] concerns Aco1, Aos, Chit3α, Chit9b, Glucac, Glucbs, Hpl. Nature of the test: Gene expression (RT-PCR) in tomato fruit induced by wounding/pathogen. In kind it is in vivo, Lycopersicon esculentum L. To be noted: 50 ppb ozone. The procedure:
(§2) (a) Fruit were incubated in clean air prior to transfer to an atmosphere containing a trace level of ozone in such a manner that fruit were wound-inoculated with the pathogen at the same physiological age. For gene expression studies, RNA was extracted from fruit snap-frozen in liquid nitrogen 24 h after wounding/inoculation, immediately following exposure to ‘clean air’ or ozone, and after 1 or 2 weeks' storage in ‘clean air’
Shifts in gene expression patterns were therefore consistent with the observed effects of trace ozone-enrichment on the development of a variety of fungal pathogens.
FIG. 7. Ozone-induced suppression of gene expression (probed by RT-PCR) induced by wounding/pathogen. Aco1 (aminocyclopropancarboxylic acid oxidase) and Aos (allene-oxide synthase) govern the production of ethylene and jasmonate, respectively. These are key signalling molecules. Chit3a (chi3 type chitinase acidic), Chit9b (chi9-type chitinase basic), Glucac (β-1-3 glucanase acidic), Glucbs (β-1-3 glucanase basic), and Hpl hydroperoxide lyase) are all involved with defence against pathogens and other stresses. Gapdh was used as the control gene. Measurements made on tomato fruit (Lycopersicon esculentum L.) incubated throughout in controlled environment chambers maintained at 13° C. and 95% RH and ventilated with clean air or 50 ppb ozone. FIG. 7a, immediate; FIG. 7b, 1 week; FIG. 7c 2 weeks.

Test [6] deals with Alternaria alternata. Nature of the test: Black spot development on wound-inoculated tomato fruit in ozone-enriched air. The class given is in vivo. To be noted: 50 ppb ozone, even for 2-8 h. How it is done: The development of black spot (Alternaria alternata) was suppressed by more than 50% in fruit maintained in an atmosphere containing a trace level of ozone (50 ppb)—even for a relatively short period of time (2-8 h). Fruit were inoculated with a mycelial plug containing the pathogen and the experiment was performed according to design B (FIG. 1).
FIG. 3. Impacts of ozone-enrichment on the development of black spot (Alternaria alternata) raised on tomato fruit (Lycopersicon esculentum L. cv. Mareta) wound-inoculated with an agar plug containing mycelia of the pathogen. Fruit were maintained in controlled environment chambers at 13° C. and 95% RFL Chambers were ventilated with ‘clean’ (chracoal-filtered) air (CFA, □) or CFA plus a trace level of ozone (50 ppb, ●). Values represent mean (±SE) for 3-4 replicate fruit.

Test [7] concerns targeted fungal pathogens. The experiment in a line: Colony development of fungal pathogens in vitro. In kind it is cell-based. To be noted: ozone concentrations upto 5.0 ppm. The source says:
This implies that the observed suppression of spoilage organisms by ozone results from molecular/biochemical changes in the treated produce per se—presumably through subtle shifts in the manner in which plant tissue responds to challenge by pathogens (see FIG. 7).

Test [8] concerns Botrytis cinerea. The experiment in a line: Vaccination: tomato fruit exposed to ozone before wound-inoculation with grey mould. The class given is in vivo. How it is done: Tomato fruit were incubated for varying periods in ‘clean’ air or an atmosphere enriched with a trace level of ozone (50 ppb), then wound-inoculated with a mycelial plug of grey mould (Botrytis cinerea). Two experimental designs were adopted for the investigation of ‘memory’ effects induced by ozone:
as §2
Or, (b) Fruit were incubated in clean air or ozone and wound-inoculated with Botrytis cincerea either (i) immediately following the period of exposure, (ii) following 1 weeks' incubation in ‘clean air’ or (iii) following 2 weeks' incubation in ‘clean air’
FIG. 5. Experimental designs to test whether exposure to a trace level of ozone vaccinates produce against subsequent infection. Tomato fruit were maintained in charcoal filtered air (CPA, →) or ozone (→) prior to wound-inoculation (↓) with grey mould (Botrytis cinerea). […] Lesion development was monitored during storage in clean air, over a 7-d incubation period. […]

For test [9], the system named is silver scurf (Helminthosporium solani). Nature of the test: Silver scurf development on stored potato tubers (spore counts, lesion area). To be noted: for Lesion development (%): potato tubers; for Spores/ml: potato tubers cv. Estima, 3.5° C. then 13° C. The class given is in vivo. How it is done:
Tubers […] were washed and selected for similar levels of silver scurf (Helminthosporium solani) infection. Prior to storage, tubers were sprayed with water in order to simulate a condensation event to promote the development of the disease. Tubers were then placed in chambers maintained at 3.5° C.±0.5° C., >95% RH) ventilated with either 'clean air' (charcoal-filtered air'; CFA) or 'clean air' plus a trace level of ozone (200 ppb). After four weeks, half the tubers were removed, then the temperature raised to 13±0.5° C. […] A spore count was calculated for each tuber (n=10) using a haemocytometer. Additionally, the initial and final surface area covered in silver scurf lesions was measured using a […] devices image analyser. Taking into account shrinkage of the potato over the storage period, the percentage of each tuber covered in silver scurf was calculated.

The mark [10] stands for this setting: 200 ppb ozone weeks 1-4, NFA weeks 5-8.
Setting [11] is: 200 ppb ozone weeks 1-4 and weeks 5-8.

With `O=[O+][O-]` [ozone], the Spore germ. result was “significantly reduced” in the test on Colletotrichum coccodes; 52.50 ± 4.550 in the test on Colletotrichum coccodes (listed as O3); 99.86 ± 0.137 in the test on Alternaria alternata [1] (50 ppb O3, recovered spores on agar, 72 h incubation); “significantly reduced” with Botrytis cinerea [2]; 96.76 ± 0.613 in the test on Botrytis cinerea [2] (listed as O3). The Spore prod. result was “dramatically reduced” in the test with Colletotrichum coccodes; 2.44 ± 0.526 with Colletotrichum coccodes (listed as O3); “dramatically reduced” in the test on Alternaria alternata [1]; 5.83 ± 0.645 in the test on Alternaria alternata [1] (listed as O3); “dramatically reduced” in the test with Botrytis cinerea [2]; 7.50 ± 1.510 with Botrytis cinerea [2] (listed as O3). Besides, in the test on Botrytis cinerea [3], the “Grey mould lesion development” value is given as “dramatically suppressed”. The “Development of the pathogen (based on spore production)” value with Botrytis cinerea [4] was “dramatically reduced”. In addition, in test [5], the “Persistence of gene expression effects after transfer to clean air” value is on record as “persisted for upto two weeks”. For the same molecule, the “Expression of signal-transduction and defence genes” value in [5] (13° C., 95% RH) is “decline”. Further, in the test on Alternaria alternata [6], the “Suppression of black spot development” value is “more than 50%”. Besides, in test [7], the “Direct effects on colony development in vitro” value was “No direct effects”. In addition, the “Persistence of vaccination effect after removal from ozone” value in the test on Botrytis cinerea [8] (tomato fruit transferred to clean air) is given as “persisted for up to two weeks”. Besides, in the test on Botrytis cinerea [8] (trace level of ozone (50 ppb), even 2-8 h, before inoculation, tomato fruit), the “Pathogen development after prior exposure to ozone” value is recorded as “marked suppression”. In addition, the entries for the “Lesion development (%)” value in [9] (setting [10]) and in test [9] (setting [11]) were 21.34 a % and 12.81 b %, respectively. Also, the results for the Spores/ml in [9] (setting [10]) and in test [9] (setting [11]) were 3.9 × 10^6 c Spores/ml and 1.7 × 10^6 b Spores/ml, respectively.

Values taken from patent US20060276970A1, “Apparatus and method for the ozone preservation of crops” (Biofresh Limited, priority 2003, published 2006).
